Measurements taken from patent publication EP0545911B1, “Lanthionine-containing bacteriocin compositions for use as bactericides” (APPLIED MICROBIOLOGY, INC., priority 1988, dated 1996).

Columns and labels:
Assay type in all cases: cell-based
Streptococcus agalactiae = assay: Bactericidal activity (percent bacterial survival, CFU count) in milk at 37°C; details: for % survival at 2hr: Monolaurin 0 %
Method: (§1) All tests in the following examples were performed at 37°C. The efficacy of the enhanced broad range bactericides was determined by assaying bactericidal activity as measured by the percent bacterial survival after treatment with the bactericide. Generally, after incubation of a 10^7 cell per ml suspension of target species with the novel bactericide for specified lengths of time, bacteria were collected by centrifugation for 2 minutes. The bacterial pellet was washed free of the bactericide with a rescue buffer, termed herein Phage buffer (50mM Tris-HCl buffer pH 7.8, 1mM MgSO4, 4mM CaCl2, 0.1 M NaCl, and 0.1% gelatin), resuspended and serially diluted into Phage buffer, and […] of the suspended bacteria were spread on nutrient agar plates. Surviving bacteria were determined by scoring colony forming units (CFU) after incubation for 24-48 hours at 37°C. An effective bactericide according to this invention is one which allows less than 0.1% of the initial viable count of the bacteria to survive.
Thus, when the application of nisin is limited by its available activity, a bactericide comprising nisin with a surfactant can be expected to be more useful.

Listeria monocytogenes [1] = assay: as above
Method: as §1

Listeria monocytogenes [2] = details: monooleate by itself; milk
Method: as §1

CCCCCCCCCCCC(=O)OCC(O)CO (stereo not drawn) [Monolaurin, monolaurin]
viability at 0.01 % (Streptococcus agalactiae; Streptococcus agalactiae, 2 h, Nisin 0 µg/ml, Monolaurin 0.01 %, 37°C, initial viable counts 6.0 x 10^7 cfu/ml): 100% | viability at 0.1 % (Streptococcus agalactiae; Streptococcus agalactiae, 2 h, Nisin 0 µg/ml, Monolaurin 0.1 %, 37°C, initial viable counts 6.0 x 10^7 cfu/ml): 4.5% | bactericidal activity towards Streptococcus agalactiae (in words) (Streptococcus agalactiae; monolaurin alone at concentrations up to 0.1%): little significant bactericidal activity

Nisin (ITSISLCTPGCKTGALMGCNMKTATCHCSIHVSK; not fully specified; Lantibiotic nisin-A; UniProt P13068 24-57, looked up) [polypeptide with antimicrobial properties produced by strains of Streptococcus lactis; lanthionine-containing peptide bacteriocin, known food preservative]
% survival at 2hr (Listeria monocytogenes [1]; Nisin 100 µg/ml, Monooleate 0 %, milk, 37°C, initial viable count 5.0 x 10^7 cfu/ml): 0.56% | available nisin activity towards L. monocytogenes (in words) (Listeria monocytogenes [1]; nisin alone, complex medium like milk): restricted | % survival at 2hr (Streptococcus agalactiae; Nisin 0.02 µg/ml, 37°C, initial viable counts 6.0 x 10^7 cfu/ml): 100% | % survival at 2hr (Streptococcus agalactiae; Nisin 0.2 µg/ml, 37°C, initial viable counts 6.0 x 10^7 cfu/ml): 2.2% | bactericidal activity in milk (in words) (Streptococcus agalactiae; nisin alone at concentrations up to 0.2 µg.ml): does not exhibit significant bactericidal activity

glyceride monooleate
bactericidal activity towards L. monocytogenes (in words) (Listeria monocytogenes [2]): no bactericidal activity
